We go through three molecules from ChEMBL document CHEMBL1150788, “In vitro susceptibility of Sporothrix schenckii to six antifungal agents determined using three different methods” (2007).

Format in all cases: functional
Assay [1] deals with Sporothrix schenckii. Description: Antifungal activity against Sporothrix schenckii P0019 isolate from cutaneous-lymphatic sporotrichosis patient after 72 hrs by ATB Fungus 2 method.
For assay [2], the system named is Sporothrix schenckii. The assay is described as follows: Antifungal activity against Sporothrix schenckii PSSA81 isolate from cutaneous-lymphatic sporotrichosis patient after 72 hrs by modified NCCLS M38-A method.
The subject of assay [3] is Sporothrix schenckii. Description: Antifungal activity against Sporothrix schenckii P14954 isolate from cutaneous-lymphatic sporotrichosis patient after 72 hrs by ATB Fungus 2 method.
The test system of assay [4] is Sporothrix schenckii. The assay is described as follows: Antifungal activity against Sporothrix schenckii MRSS4 isolate from cutaneous-lymphatic sporotrichosis patient after 72 hrs by modified NCCLS M38-A method.
For assay [5], the system named is Sporothrix schenckii. The assay is described as follows: Antifungal activity against Sporothrix schenckii MRSS4 isolate from cutaneous-lymphatic sporotrichosis patient after 72 hrs by Sensititre YeastOne method.
Assay [6] has as its system Sporothrix schenckii. Description: Antifungal activity against Sporothrix schenckii MRSS4 isolate from cutaneous-lymphatic sporotrichosis patient after 72 hrs by ATB Fungus 2 method.
Assay [7] deals with Sporothrix schenckii. The assay is described as follows: Antifungal activity against Sporothrix schenckii P24223 isolate from cutaneous-lymphatic sporotrichosis patient after 72 hrs by Sensititre YeastOne method.
The test system of assay [8] is Sporothrix schenckii. The assay is described as follows: Antifungal activity against Sporothrix schenckii PSCC1 isolate from cutaneous-lymphatic sporotrichosis patient after 72 hrs by modified NCCLS M38-A method.
Assay [9] has as its system Sporothrix schenckii. Description: Antifungal activity against Sporothrix schenckii PSCC1 isolate from cutaneous-lymphatic sporotrichosis patient after 72 hrs by ATB Fungus 2 method.
Assay [10] has as its system Sporothrix schenckii. The assay is described as follows: Antifungal activity against Sporothrix schenckii P24255 isolate from cutaneous-lymphatic sporotrichosis patient after 72 hrs by ATB Fungus 2 method.
The test system of assay [11] is Sporothrix schenckii. Description: Antifungal activity against Sporothrix schenckii P10012 isolate from cutaneous-lymphatic sporotrichosis patient after 72 hrs by Sensititre YeastOne method.
Assay [12] deals with Sporothrix schenckii. The assay is described as follows: Antifungal activity against Sporothrix schenckii P10012 isolate from cutaneous-lymphatic sporotrichosis patient after 72 hrs by ATB Fungus 2 method.
Assay [13] concerns Sporothrix schenckii. The assay is described as follows: Antifungal activity against Sporothrix schenckii SSA29 isolate from cutaneous-lymphatic sporotrichosis patient after 72 hrs by modified NCCLS M38-A method.
In assay [14] the test system is Sporothrix schenckii. Description: Antifungal activity against Sporothrix schenckii SSA29 isolate from cutaneous-lymphatic sporotrichosis patient after 72 hrs by Sensititre YeastOne method.
Assay [15] deals with Sporothrix schenckii. Description: Antifungal activity against Sporothrix schenckii P26187 isolate from cutaneous-lymphatic sporotrichosis patient after 72 hrs by Sensititre YeastOne method.
For assay [16], the system named is Sporothrix schenckii. The assay is described as follows: Antifungal activity against Sporothrix schenckii PGAC0016 isolate from cutaneous-lymphatic sporotrichosis patient after 72 hrs by modified NCCLS M38-A method.
For assay [17], the system named is Sporothrix schenckii. The assay is described as follows: Antifungal activity against Sporothrix schenckii PGAC0016 isolate from cutaneous-lymphatic sporotrichosis patient after 72 hrs by ATB Fungus 2 method.
Assay [18] concerns Pichia kudriavzevii. The assay is described as follows: Antifungal activity against Candida krusei ATCC 6258 […] after 72 hrs by modified NCCLS M38-A method. As to conditions: ATCC 6258, 72 h.
The test system of assay [19] is Candida parapsilosis. The assay is described as follows: Antifungal activity against Candida parapsilosis ATCC 22019 […] after 72 hrs by modified NCCLS M38-A method. To be noted: Lodderomyces parapsilosis, ATCC 22019, 72 h.
Assay [20] relates to Candida parapsilosis. Description: Antifungal activity against Candida parapsilosis ATCC 22019 […] after 72 hrs by Sensititre YeastOne method. To be noted: Lodderomyces parapsilosis, ATCC 22019, 72 h.
Assay [21] concerns Aspergillus flavus. Description: Antifungal activity against Aspergillus flavus ATCC 204304 […] after 72 hrs by modified NCCLS M38-A method. As to conditions: ATCC 204304, 72 h.
For assay [22], the system named is Aspergillus flavus. Description: Antifungal activity against Aspergillus flavus ATCC 204304 […] after 72 hrs by Sensititre YeastOne method. To be noted: ATCC 204304, 72 h.
For assay [23], the system named is Aspergillus flavus. Description: Antifungal activity against Aspergillus flavus ATCC 204304 […] after 72 hrs by ATB Fungus 2 method. As to conditions: ATCC 204304, 72 h.
In assay [24] the test system is Sporothrix schenckii. Description: Antifungal activity against Sporothrix schenckii isolate from cutaneous-lymphatic sporotrichosis patient after 72 hrs by modified NCCLS M38-A method.

Converted amounts (≈) assume the structure as drawn.

Take `CCC(C)n1ncn(-c2ccc(N3CCN(c4ccc(OCC5COC(Cn6cncn6)(c6ccc(Cl)cc6Cl)O5)cc4)CC3)cc2)c1=O` (centres undefined) [ITRACONAZOLE]: the MIC (as a rule, the smallest concentration in the dilution series that meets the test's criterion for growth inhibition) amounted to 2 µg/mL (≈ 2.83 µM) in [1]; 0.5 µg/mL (≈ 0.709 µM) in assay [2]; 4 µg/mL (≈ 5.67 µM) in assay [3]; 0.5 µg/mL (≈ 0.709 µM) in [4]; 0.25 µg/mL (≈ 0.354 µM) in [5]; 2 µg/mL (≈ 2.83 µM) in assay [6]. In addition, the minimum inhibitory concentration (MIC) stood at 0.5 µg/mL (≈ 0.709 µM) in assay [7]; 0.25 µg/mL (≈ 0.354 µM) in assay [8]; 1 µg/mL (≈ 1.42 µM) in assay [9]; 1 µg/mL (≈ 1.42 µM) in assay [10]; 0.25 µg/mL (≈ 0.354 µM) in [11]; 2 µg/mL (≈ 2.83 µM) in [12]. The minimum inhibitory concentration (MIC) in assay [13] came out at 0.5 µg/mL (≈ 0.709 µM); in assay [14], 0.25 µg/mL (≈ 0.354 µM); in assay [15], 0.13 µg/mL (≈ 0.184 µM); in [16], 0.5 µg/mL (≈ 0.709 µM); in assay [17], 2 µg/mL (≈ 2.83 µM); in assay [18], 1 µg/mL (≈ 1.42 µM). Also, the MIC in [19] was 0.5 µg/mL (≈ 0.709 µM); in assay [20] it was 0.25 µg/mL (≈ 0.354 µM); in assay [21], 0.5 µg/mL (≈ 0.709 µM); in assay [22], 0.25 µg/mL (≈ 0.354 µM); in assay [23] it was 0.25 µg/mL (≈ 0.354 µM). Further, the MIC50 (in general, the lowest concentration that inhibits either 50% of growth or 50% of the strains tested, depending on the study) in assay [24] amounted to 0.5 µg/mL (≈ 0.709 µM). In [24], the MIC90 (as a rule, the lowest concentration that inhibits either 90% of growth or 90% of the strains tested, depending on the study) turned out to be 0.5 µg/mL (≈ 0.709 µM).

`C[C@@H]1[C@H](O)[C@@H](C)/C=C/C=C/C=C/C=C/C=C/C=C/C=C/[C@H](O[C@@H]2O[C@H](C)[C@@H](O)[C@H](N)[C@@H]2O)C[C@@H]2O[C@](O)(C[C@@H](O)C[C@@H](O)[C@H](O)CC[C@@H](O)C[C@@H](O)CC(=O)O[C@H]1C)C[C@H](O)[C@H]2C(=O)O` [AMPHOTERICIN B]: the MIC is no more than 0.5 µg/mL in assay [1]; 1 µg/mL (≈ 1.08 µM) in assay [2]; no more than 0.5 µg/mL in assay [3]; 0.06 µg/mL (≈ 0.0649 µM) in assay [4]; 0.5 µg/mL (≈ 0.541 µM) in [5]; 4 µg/mL (≈ 4.33 µM) in assay [6]. In addition, the MIC in [7] is 0.5 µg/mL (≈ 0.541 µM); in assay [8], 0.25 µg/mL (≈ 0.271 µM); in assay [9] it was no more than 0.5 µg/mL; in [10], 2 µg/mL (≈ 2.16 µM); in assay [11], 0.25 µg/mL (≈ 0.271 µM); in assay [12], no more than 0.5 µg/mL. Moreover, the MIC in assay [13] is greater than 16 µg/mL; in [14] it was 0.06 µg/mL (≈ 0.0649 µM); in assay [15] it was 0.5 µg/mL (≈ 0.541 µM); in assay [16] it was 0.25 µg/mL (≈ 0.271 µM); in assay [17], no more than 0.5 µg/mL; in assay [19] it was 0.5 µg/mL (≈ 0.541 µM). Moreover, the minimal inhibitory concentration (MIC) in assay [21] was 4 µg/mL (≈ 4.33 µM); in assay [22], 0.5 µg/mL (≈ 0.541 µM); in assay [23], greater than 16 µg/mL. The MIC50 in [24] worked out at 1 µg/mL (≈ 1.08 µM). In addition, the MIC90 in [24] is greater than 116 µg/mL.

For `OC(Cn1cncn1)(Cn1cncn1)c1ccc(F)cc1F` [FLUCONAZOLE], the minimum inhibitory concentration (MIC) in [1] was greater than 128 µg/mL; in assay [2], greater than 64 µg/mL; in [3], greater than 128 µg/mL; in [4], greater than 64 µg/mL; in assay [5], greater than 256 µg/mL; in assay [6], greater than 128 µg/mL. Also, the MIC is greater than 256 µg/mL in [7]; greater than 64 µg/mL in [8]; greater than 128 µg/mL in assay [9]; 128 µg/mL (≈ 418 µM) in assay [10]; greater than 256 µg/mL in assay [11]; greater than 128 µg/mL in assay [12]. The MIC is greater than 64 µg/mL in assay [13]; greater than 256 µg/mL in assay [14]; 128 µg/mL (≈ 418 µM) in assay [15]; greater than 64 µg/mL in assay [16]; greater than 128 µg/mL in assay [17]; 128 µg/mL (≈ 418 µM) in assay [18]. This molecule returned a minimal inhibitory concentration (MIC) in assay [19] of 1 µg/mL (≈ 3.27 µM). For the same molecule, the MIC50 in assay [24] was greater than 64 µg/mL. Also, the MIC90 in assay [24] is greater than 64 µg/mL.
